Test results published in patent publication US6436630B1, “Method for testing the toxicity of chemical substances using gastropods” (priority 1998, dated 2002).
Where a name gives a salt, the structure may show the parent alone.

Key:
[1] = tested on: foot mucosa of slugs of the species Arion; assay: Slug mucosal toxicity test of local anaesthetics, Example 4; assay type: in vivo
Protocol: The following local anaesthetics were used as test substance: procaine HCl, lidocaine HCl, prilocaine HCl, tetracaine HCl and bupivacaine HCl. All test substances were prepared in PBS (pH 7.4) at 1% w/v concentrations. The slugs were daily incubate during 15 min with the test solution during five days. After the incubation period the slugs were placed on 1 ml PBS in a petri dish. The PBS was sampled every hour and refreshed with 1 ml PBS for 3 hours after the treatment.
The total protein released into the PBS was determined.

[2] = tested on: foot mucosa of slugs of species Arion; assay: Slug mucosal toxicity test, Example 2 (15 min daily treatment, four days); conditions: in vivo; for % MP, mucus production as % of the body weight at the start of the day before the treatment / ALP released into PBS / Protein released into PBS: Arion (slug)
Protocol: As test substance a β-blocking agent propranolo HCl (1% w/v) was used. Benzalkonium chloride (1% w/v) and Propranolol (1% w/v) were prepared in PBS (pH 7.4). The slugs were daily incubated during 15 min with the test solution during four days. After the incubation period the slugs were placed on 500 μL PBS in a petri dish. The PBS was sampled every hour and refreshed with 500 μL PBS for 3 hours after the treatment.
The enzymes (LDH, ALP) and the total protein released into the PBS were determined. The change in body weight and the mucus production caused by the treatment were examined.

[3] = tested on: foot mucosa of slugs (species Arion); assay: Slug mucosal toxicity test, Example 1 (15 min daily treatment, five days); assay type: in vivo; conditions: for % WL, reduction in weight (weight loss) caused by the 15 minute treatment as % of initial body weight of the day / % MP, mucus production as % of the body weight at the start of the day before the treatment: 1% w/v in PBS; for % MP, mucus production as % of the body weight at the start of the day before the treatment / ALP released into PBS / LDH released into PBS / Protein released into PBS: 15 min; for ALP released into PBS / LDH released into PBS / Protein released into PBS: total mean of 7 samples/day per slug
Text: Initially, the slugs are kept on a culture under controlled conditions of temperature and humidity until they have reached a stable body weight. The purpose of achieving a stable body weight is to improve the reproducibility of the results, particularly as the release of substances from the slugs may conveniently be measured in terms of the body weight thereof. The slugs are then isolated from the culture and placed in a vented plastic box lined with moist paper towel and placed at 95% relative humidity at 20° C. seven days before the start of an experiment. The slugs were not bred in any particular way, i.e. they were wild slugs. It is anticipated that even more accurate and reproducible results can be obtained by selective breeding of the slugs, although as shown by the test results this is not a necessary requirement of the present invention to obtain accurate and useful data.
The test procedure is simple and rapid. The chemical substance to be tested is applied directly to the mucosal membrane of a slug, e.g. to the foot, by placing the slug individually in a petri dish containing the test substance. Slugs treated with phosphate buffered saline are used as a negative control. As a positive control slugs treated with a known toxic substance, benzalkonium chloride, were used.
Because the mucosal epithelium of interest is located at the outside of the slug the effect of substances can be easily observed. […] This can also be simply measured by weighing the petri dish before and after the treatment of the slugs with the chemical substance (with the slugs removed in each case). Additionally an indirect response to epithelial damage caused by a chemical substance may be determined by the reduction of the body weight of the slugs due to the leakage of haemolymphatic fluids through the damaged foot surface.
After the treatment the slugs are transferred individually to a fresh petri dish containing phosphate buffered saline. After a suitable exposure time, e.g. 1 hour the phosphate buffered saline is collected and analysed for the presence of proteins and/or enzymes, e.g. lactate dehydrogenase and/or alkaline phosphatase, or other marker substances released from the foot or epithelium of the slug, for example membrane associated components such as phospholipids or cholesterol. This procedure can be repeated after periods of several hours in order to determine the reversibility of the cell damage caused by the test chemical substance. The concentration or amount of the chemical substance to be tested can be changed and the influence of the concentration can be easily examined. The exposure time can also be changed if required. The slugs can be treated during several successive days in order to investigate the subchronical effect of substances on the foot mucosa.
Seven days before the start of the experiment the slugs were isolated in a plastic box lined with moist paper towel and placed at 95% relative humidity at 20° C. As test substances didecanyol-L-α-phosphatidylcholine (DDPC) and sodium deoxycholate (SDC) were selected. Benzalkonium chloride (1% w/v), SDC (1% w/v) and DDPC (1%, w/v) were prepared in phosphate buffered saline (PBS, pH 7.4). […] During the test the slugs are preferably kept in a generally calm and normal state and are not subjected to mechanical vibrations or mechanical or electrical disturbances which may affect mucus production.
The enzymes (lactate dehydrogenase (LDH) and alkaline phosphatase (ALP)) and total protein released into the PBS were determined. The slugs were weighed before and after the incubation period to determine the body weight changes. The mucus production was measured by weighing the petri dishes before and after the treatment with a test substance. The results are shown in Table 1 and shown graphically in FIGS. 1 to 5.

[4] = 1% w/v, 15 min daily, five days

## CCN(CC)CC(=O)Nc1c(C)cccc1C [Lidocaine HCl, lidocaine HCl]
[1]; [4]
  damage (in words): little or no damage
[1]; day 1, 1% w/v in PBS, 15 min
  % MP, mucus production as % of the body weight at the start of the day before the treatment: 0%
[1]; day 2, 1% w/v in PBS, 15 min
  % MP, mucus production as % of the body weight at the start of the day before the treatment: 0%
[1]; day 3, 1% w/v in PBS, 15 min
  % MP, mucus production as % of the body weight at the start of the day before the treatment: 0%
[1]; day 4, 1% w/v in PBS, 15 min
  % MP, mucus production as % of the body weight at the start of the day before the treatment: 0%
[1]; day 5, 1% w/v in PBS, 15 min
  % MP, mucus production as % of the body weight at the start of the day before the treatment: 0%

## CC(C)NCC(O)COc1cccc2ccccc12 (stereo not drawn) [Propr, propranolol HCl]
[2]; 1 day
  % MP, mucus production as % of the body weight at the start of the day before the treatment: 0.77%
  ALP released into PBS: 0.35 U/L
  Protein released into PBS: 4.89 μg/30 μL
[2]; 2 day
  % MP, mucus production as % of the body weight at the start of the day before the treatment: 3.74%
  ALP released into PBS: 2.19 U/L
  Protein released into PBS: 31.61 μg/30 μL
[2]; 3 day
  % MP, mucus production as % of the body weight at the start of the day before the treatment: 3.11%
  ALP released into PBS: 17.50 U/L
  Protein released into PBS: 31.36 μg/30 μL
[2]; 4 day
  % MP, mucus production as % of the body weight at the start of the day before the treatment: 2.80%
  ALP released into PBS: 18.43 U/L
  Protein released into PBS: 20.88 μg/30 μL
[2]
  colour of the mucus excreted by the slugs: orange coloured
  irritation (in words): considerable irritation
  membrane damage (in words): severe membrane damage
  survival of the slugs: all the slugs were dead

## CCN(CC)CCOC(=O)c1ccc(N)cc1 [Procaine HCl, procaine HCl]
[1]; Arion (slug), in vivo, 1 day
  % MP, mucus production as % of the body weight at the start of the day before the treatment: 0%
  Total protein release into PBS: 204 µg/mL
[1]; Arion (slug), in vivo, 2 day
  % MP, mucus production as % of the body weight at the start of the day before the treatment: 0%
  Total protein release into PBS: 62 µg/mL
[1]; Arion (slug), in vivo, 3 day
  % MP, mucus production as % of the body weight at the start of the day before the treatment: 0%
  Total protein release into PBS: 92 µg/mL
[1]; Arion (slug), in vivo, 4 day
  % MP, mucus production as % of the body weight at the start of the day before the treatment: 0%
  Total protein release into PBS: 54 µg/mL
[1]; Arion (slug), in vivo, 5 day
  % MP, mucus production as % of the body weight at the start of the day before the treatment: 0%
  Total protein release into PBS: 70 µg/mL
[1]; in vivo
  damage (in words): little or no damage

## CCCCNc1ccc(C(=O)OCCN(C)C)cc1 [Tetracaine HCl, tetracaine HCl]
[1]; Arion (slug), in vivo, 1 day
  % MP, mucus production as % of the body weight at the start of the day before the treatment: 3.45%
  Total protein release into PBS: 413 µg/mL
[1]; Arion (slug), in vivo, 2 day
  % MP, mucus production as % of the body weight at the start of the day before the treatment: 2.48%
  Total protein release into PBS: 130 µg/mL
[1]; Arion (slug), in vivo, 3 day
  % MP, mucus production as % of the body weight at the start of the day before the treatment: 1.15%
  Total protein release into PBS: 120 µg/mL
[1]; Arion (slug), in vivo, 4 day
  % MP, mucus production as % of the body weight at the start of the day before the treatment: 1.29%
  Total protein release into PBS: 128 µg/mL
[1]; Arion (slug), in vivo, 5 day
  % MP, mucus production as % of the body weight at the start of the day before the treatment: 0.65%
  Total protein release into PBS: 149 µg/mL
[1]; in vivo
  mucus production (in words): increased mucus production
  protein release (in words): increased protein release

## CCCNC(C)C(=O)Nc1ccccc1C (stereo not drawn) [Prilocaine HCl, prilocaine HCl]
[1]; Arion (slug), in vivo, 1 day
  % MP, mucus production as % of the body weight at the start of the day before the treatment: 0%
  Total protein release into PBS: 139 µg/mL
[1]; Arion (slug), in vivo, 2 day
  % MP, mucus production as % of the body weight at the start of the day before the treatment: 0%
  Total protein release into PBS: 62 µg/mL
[1]; Arion (slug), in vivo, 3 day
  % MP, mucus production as % of the body weight at the start of the day before the treatment: 0%
  Total protein release into PBS: 72 µg/mL
[1]; Arion (slug), in vivo, 4 day
  % MP, mucus production as % of the body weight at the start of the day before the treatment: 0%
  Total protein release into PBS: 65 µg/mL
[1]; Arion (slug), in vivo, 5 day
  % MP, mucus production as % of the body weight at the start of the day before the treatment: 0%
  Total protein release into PBS: 82 µg/mL

## CCCCCCCCCC(=O)OC[C@H](COP(=O)([O-])OCC[N+](C)(C)C)OC(=O)CCCCCCCCC [DDPC, didecanyol-L-α-phosphatidylcholine]
[3]; [4]
  membrane damage (in words): little or no damage
[3]; day 1
  % WL, reduction in weight (weight loss) caused by the 15 minute treatment as % of initial body weight of the day: 4.84%
  % MP, mucus production as % of the body weight at the start of the day before the treatment: 0.2%
[3]; day 1, 1% w/v
  ALP released into PBS: 9.43 U/L
  LDH released into PBS: 9.51 U/L
  Protein released into PBS: 12.43 μg/30 μL
[3]; day 2
  % WL, reduction in weight (weight loss) caused by the 15 minute treatment as % of initial body weight of the day: 1.19%
  % MP, mucus production as % of the body weight at the start of the day before the treatment: 0%
[3]; day 2, 1% w/v
  ALP released into PBS: 21.83 U/L
  LDH released into PBS: 14.47 U/L
  Protein released into PBS: 3.77 μg/30 μL
[3]; day 3
  % WL, reduction in weight (weight loss) caused by the 15 minute treatment as % of initial body weight of the day: 1.15%
  % MP, mucus production as % of the body weight at the start of the day before the treatment: 0%
[3]; day 3, 1% w/v
  ALP released into PBS: 13.82 U/L
  LDH released into PBS: 23.36 U/L
  Protein released into PBS: 6.41 μg/30 μL
[3]; day 4
  % WL, reduction in weight (weight loss) caused by the 15 minute treatment as % of initial body weight of the day: 1.39%
  % MP, mucus production as % of the body weight at the start of the day before the treatment: 0%
[3]; day 4, 1% w/v
  ALP released into PBS: 4.55 U/L
  LDH released into PBS: 19.07 U/L
  Protein released into PBS: 4.98 μg/30 μL
[3]; day 5
  % WL, reduction in weight (weight loss) caused by the 15 minute treatment as % of initial body weight of the day: 1.14%
  % MP, mucus production as % of the body weight at the start of the day before the treatment: 0%
[3]; day 5, 1% w/v
  ALP released into PBS: 12.42 U/L
  LDH released into PBS: 28.32 U/L
  Protein released into PBS: 2.40 μg/30 μL

## CCCCN1CCCCC1C(=O)Nc1c(C)cccc1C (stereo not drawn) [Bupivacaine HCl, bupivacaine HCl]
[1]; Arion (slug), in vivo, 1 day
  % MP, mucus production as % of the body weight at the start of the day before the treatment: 7.24%
  Total protein release into PBS: 755 µg/mL
[1]; Arion (slug), in vivo, 2 day
  % MP, mucus production as % of the body weight at the start of the day before the treatment: 5.22%
  Total protein release into PBS: 464 µg/mL
[1]; Arion (slug), in vivo, 3 day
  % MP, mucus production as % of the body weight at the start of the day before the treatment: 2.74%
  Total protein release into PBS: 277 µg/mL
[1]; Arion (slug), in vivo, 4 day
  % MP, mucus production as % of the body weight at the start of the day before the treatment: 1.64%
  Total protein release into PBS: 159 µg/mL
[1]; Arion (slug), in vivo, 5 day
  % MP, mucus production as % of the body weight at the start of the day before the treatment: 1.34%
  Total protein release into PBS: 313 µg/mL
[1]; in vivo
  mucus production (in words): increased mucus production
  protein release (in words): increased protein release
